From patent publication US9409870B2, “Compounds” (CHIESI FARMACEUTICI S.p.A., priority 2014, dated 2016)

Target: T1, human neutrophil elastase (HNE) (Homo sapiens, UniProt P08246)
T1 construct: purchased Sigma E8140
T1 sequence (P08246 30-247 limits assumed): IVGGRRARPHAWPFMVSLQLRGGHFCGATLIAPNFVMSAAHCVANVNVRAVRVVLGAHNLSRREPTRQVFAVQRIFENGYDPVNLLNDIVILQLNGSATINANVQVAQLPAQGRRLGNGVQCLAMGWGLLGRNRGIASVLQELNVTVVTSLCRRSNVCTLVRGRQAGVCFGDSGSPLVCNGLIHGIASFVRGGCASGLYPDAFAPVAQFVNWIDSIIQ
Experiment: HNE enzyme activity assay (fluorogenic peptide substrate MeOSuc-Ala-Ala-Pro-Val-AMC)
Format: biochemical
Conditions: human leukocyte elastase 0.00072 U/mL, substrate 100 μM, 25° C., 30 minutes, pH 7.5; at least two separate experiments; read-out: FINE inhibition (HNE enzyme inhibition, IC50 values)
Procedure: Compounds of this invention were tested for potency in a human neutrophil elastase (HNE) enzyme activity assay.
Assays were performed in 96-well plates in a total assay volume of 100 μL. The final concentration of elastase enzyme (human leukocyte elastase, Sigma E8140) was 0.00072 U/mL. The peptide substrate (MeOSuc-Ala-Ala-Pro-Val-AMC, Calbiochem #324740) was used at a final concentration of 100 μM. The final concentration of DMSO was 1% in the assay buffer (0.05M Tris.HCl, 0.1M NaCl, 0.1M CaCl2, 0.0005% brij-35, pH 7.5). The enzymatic reaction was started by addition of the enzyme and incubated at 25° C. for 30 minutes. After incubation, the reaction was stopped by addition of soybean trypsin inhibitor (Sigma T9003) at a final concentration of 50 μg/well. Fluorescence was measured using a Molecular Devices fluorescence plate reader using 380 nm excitation and 460 nm emission wavelengths.
A dose response to each compound was performed and the effect of compound in each experiment was expressed as a percentage inhibition of the control enzyme fluorescence. Dose response curves were plotted and compound potency (IC50) was determined. Compounds were tested in at least two separate experiments.

IC50	SMILES
< 1 nM	Cc1c(-c2ccnn2-c2ccc(C#N)cc2)n(C(=O)N[C@@H]2COC[C@H]2O)c(=O)n1-c1cccc(C(F)(F)F)c1 (racemic) [Example 48, Mixture of 5-[2-(4-Cyano-phenyl)-2H-pyrazol-3-yl]-4-methyl-2-oxo-3-(3-trifluoromethyl-phenyl)-2,3-dihydro-imidazole-1-carboxylic acid ((3R,4S)-4-hydroxy-tetrahydro-furan-3-yl)-amide and 5-[2-(4-Cyano-phenyl)-2H-pyrazol-3-yl]-4-methyl-2-oxo-3-(3-trifluoromethyl-phenyl)-2,3-dihydro-imidazole-1-carboxylic acid ((3S,4R)-4-hydroxy-tetrahydro-furan-3-yl)-amide]
10 to 50 nM	Cc1c(-c2ccn(-c3ccc(C#N)cc3Br)n2)n(C(=O)NC2CCCC2)c(=O)n1-c1cccc(C(F)(F)F)c1 [Example 57, 5-[1-(2-Bromo-4-cyano-phenyl)-1H-pyrazol-3-yl]-4-methyl-2-oxo-3-(3-trifluoromethyl-phenyl)-2,3-dihydro-imidazole-1-carboxylic acid cyclopentylamide]
1 to 10 nM	CC(=O)n1c(-c2ccnn2-c2ccc(C#N)cc2)c(C)n(-c2cccc(C(F)(F)F)c2)c1=O [Example 5, 4-(5-{3-Acetyl-5-methyl-2-oxo-1-[3-(trifluoromethyl)phenyl]-2,3-dihydro-1H-imidazol-4-yl}-1H-pyrazol-1-yl)benzonitrile]
< 1 nM	Cc1c(-c2ccnn2-c2ccc(C#N)cc2)n(S(C)(=O)=O)c(=O)n1-c1cccc(C(F)(F)F)c1 [Example 27, 4-(5-{5-Methyl-3-(methylsulfonyl)-2-oxo-1-[3-(trifluoromethyl)phenyl]-2,3-dihydro-1H-imidazol-4-yl}-1H-pyrazol-1-yl)benzonitrile]
1 to 10 nM	Cc1c(-c2ccnn2-c2ccc(C#N)cc2)n(C)c(=O)n1-c1cccc(C(F)(F)F)c1 [Example 3, 4-(5-{3,5-Dimethyl-2-oxo-1-[3-(trifluoromethyl)phenyl]-2,3-dihydro-1H-imidazol-4-yl}-1H-pyrazol-1-yl)benzonitrile]
< 1 nM	Cc1c(-c2ccnn2-c2ccc(C#N)cc2)n(C(=O)N[C@H]2CCOC2)c(=O)n1-c1cccc(C(F)(F)F)c1 [Example 15, 5-[1-(4-Cyanophenyl)-1H-pyrazol-5-yl]-4-methyl-2-oxo-N-[(3S)-tetrahydrfuran-3-yl]-3-[3-(trifluoromethyl)phenyl]-2,3-dihydro-1H-imidazole-1-carboxamide]
10 to 50 nM	CNC(=O)Cn1c(-c2ccnn2-c2ccc(C#N)cc2)c(C)n(-c2cccc(C(F)(F)F)c2)c1=O [Example 23, 2-{5-[1-(4-Cyanophenyl)-1H-pyrazol-5-yl]-4-methyl-2-oxo-3-[3-(trifluoromethyl)phenyl]-2,3-dihydro-1H-imidazol-1-yl}-N-methylacetamide]
< 1 nM	CCCC(=O)n1c(-c2ccnn2-c2ccc(C#N)cc2)c(C)n(-c2cccc(C(F)(F)F)c2)c1=O [Example 10, 4-(5-{3-Butanoyl-5-methyl-2-oxo-1-[3-(trifluoromethyl)phenyl]-2,3-dihydro-1H-imidazol-4-yl}-1H-pyrazol-1-yl)benzonitrile]

The remaining lines, values behind:

SMILES	IC50
Cc1c(-c2ccnn2-c2ccc(C#N)cc2)n(C(=O)NCc2cnccn2)c(=O)n1-c1cccc(C(F)(F)F)c1 [Example 52, 5-[2-(4-Cyano-phenyl)-2H-pyrazol-3-yl]-4-methyl-2-oxo-3-(3-trifluoromethyl-phenyl)-2,3-dihydro-imidazole-1-carboxylic acid (pyrazin-2-ylmethyl)-amide]	1 to 10 nM
Cc1c(-c2ccnn2-c2ccc(C#N)cc2)n(CCN(C)C)c(=O)n1-c1cccc(C(F)(F)F)c1 [Example 29, 4-{5-[3-(2-Dimethylamino-ethyl)-5-methyl-2-oxo-1-(3-trifluoromethylphenyl)-2,3-dihydro-1H-imidazol-4-yl]-pyrazol-1-yl}-benzonitrile]	1 to 10 nM
Cc1c(-c2nccn2-c2ccc(C#N)cc2)n(C(=O)NC2CCCC2)c(=O)n1-c1cccc(C(F)(F)F)c1 [Example 60, 1-(4-Cyano-phenyl)-5′-methyl-2′-oxo-1′-(3-trifluoromethyl-phenyl)-1′,2′-dihydro-1H-[2,4]biimidazolyl-3′-carboxylic acid cyclopentylamide]	< 1 nM
Cc1c(-c2ccnn2-c2ccc(C#N)cc2)n(C(=O)NC2CCCC2)c(=O)n1-c1cccc(C(F)(F)F)c1 [Example 45, 5-[2-(4-Cyano-phenyl)-2H-pyrazol-3-yl]-4-methyl-2-oxo-3-(3-trifluoromethyl-phenyl)-2,3-dihydro-imidazole-1-carboxylic acid cyclopentylamide]	< 1 nM
Cc1c(-c2ccnn2-c2ccc(C#N)cc2Br)n(C(=O)NC2CCCC2)c(=O)n1-c1cccc(C(F)(F)F)c1 [Example 56, 5-[2-(2-Bromo-4-cyano-phenyl)-2H-pyrazol-3-yl]-4-methyl-2-oxo-3-(3-trifluoromethyl-phenyl)-2,3-dihydro-imidazole-1-carboxylic acid cyclopentylamide]	1 to 10 nM
Cc1c(-c2ccnn2-c2ccc(C#N)cc2)n(C(=O)NCCCN(C)C)c(=O)n1-c1cccc(C(F)(F)F)c1 [Example 9, 5-[1-(4-Cyanophenyl)-1H-pyrazol-5-yl]-N-[3-(dimethylamino)propyl]-4-methyl-2-oxo-3-[3-(trifluoromethyl)phenyl]-2,3-dihydro-1H-imidazole-1-carboxamide]	1 to 10 nM
Cc1c(-c2ccnn2-c2ccc(C#N)cc2)n(C(=O)N[C@@H]2CCN(C)C2)c(=O)n1-c1cccc(C(F)(F)F)c1 [Example 46, 5-[2-(4-Cyano-phenyl)-2H-pyrazol-3-yl]-4-methyl-2-oxo-3-(3-trifluoromethyl-phenyl)-2,3-dihydro-imidazole-1-carboxylic acid ((R)-1-methyl-pyrrolidin-3-yl)-amide]	< 1 nM
Cc1c(-c2nccn2-c2ccc(C#N)cc2)n(C(=O)NCc2ccc(S(C)(=O)=O)cc2)c(=O)n1-c1cccc(C(F)(F)F)c1 [Example 62, 1-(4-Cyano-phenyl)-5′-methyl-2′-oxo-1′-(3-trifluoromethyl-phenyl)-1′,2′-dihydro-1H-[2,4′]biimidazolyl-3′-carboxylic acid 4-methanesulfonyl-benzylamide]	< 1 nM
Cc1c(-c2ccnn2-c2ccc(C#N)cc2)n(C(=O)N[C@@H]2CCC[C@H]2O)c(=O)n1-c1cccc(C(F)(F)F)c1 [Example 53, 5-[2-(4-Cyano-phenyl)-2H-pyrazol-3-yl]-4-methyl-2-oxo-3-(3-trifluoromethyl-phenyl)-2,3-dihydro-imidazole-1-carboxylic acid ((1R,2R)-2-hydroxy-cyclopentyl)-amide]	< 1 nM
CCS(=O)(=O)N1CCC(NC(=O)n2c(-c3ccnn3-c3ccc(C#N)cc3)c(C)n(-c3cccc(C(F)(F)F)c3)c2=O)CC1 [Example 43, 5-[2-(4-Cyano-phenyl)-2H-pyrazol-3-yl]-4-methyl-2-oxo-3-(3-trifluoromethyl-phenyl)-2,3-dihydro-imidazole-1-carboxylic acid (1-ethanesulfonyl-piperidin-4-yl)-amide]	< 1 nM
Cc1c(-c2ccnn2-c2ccc(C#N)cc2)n(C(=O)NC2CCOCC2)c(=O)n1-c1cccc(C(F)(F)F)c1 [Example 44, 5-[2-(4-Cyano-phenyl)-2H-pyrazol-3-yl]-4-methyl-2-oxo-3-(3-trifluoromethyl-phenyl)-2,3-dihydro-imidazole-1-carboxylic acid (tetrahydro-pyran-4-yl)-amide]	< 1 nM
Cc1c(-c2ccnn2-c2ccc(C#N)cc2F)n(C(=O)NC2CCCC2)c(=O)n1-c1cccc(C(F)(F)F)c1 [Example 58, 5-[2-(4-Cyano-2-fluoro-phenyl)-2H-pyrazol-3-yl]-4-methyl-2-oxo-3-(3-trifluoromethyl-phenyl)-2,3-dihydro-imidazole-1-carboxylic acid cyclopentylamide]	< 1 nM
Cc1c(-c2nccn2-c2ccc(C#N)cc2)[nH]c(=O)n1-c1cccc(C(F)(F)F)c1 [Example 59, 4-[5′-Methyl-2′-oxo-1′-(3-trifluoromethyl-phenyl)-2′,3′-dihydro-1′H-[2,4]biimidazolyl-1-yl]-benzonitrile]	10 to 50 nM
COCCNC(=O)n1c(-c2ccnn2-c2ccc(C#N)cc2)c(C)n(-c2cccc(C(F)(F)F)c2)c1=O [Example 11, 5-[1-(4-Cyanophenyl)-1H-pyrazol-5-yl]-N-(2-methoxyethyl)-4-methyl-2-oxo-3-[3-(trifluoromethyl)phenyl]-2,3-dihydro-1H-imidazole-1-carboxamide]	< 1 nM
Cc1c(-c2ccnn2-c2ccc(C#N)cc2)n(CCCN(C)C)c(=O)n1-c1cccc(C(F)(F)F)c1 [Example 30, 4-{5-[3-(3-Dimethylamino-propyl)-5-methyl-2-oxo-1-(3-trifluoromethylphenyl)-2,3-dihydro-1H-imidazol-4-yl]-pyrazol-1-yl}-benzonitrile]	1 to 10 nM
